Laboratory results: PubChem BioAssay (NCI)
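Step 1: Grow cells in 96-well plates. Step 2: Expose to compound for 48 hours at 5 concentrations. Step 3: Interpolate endpoints linearly; if unreached, use highest concentration. The concentration for full growth arrest is given as TGI.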

Key:
Assay in all cases: growth of human tumour cells (NCI), 48 h
BT-549 breast = test system: BT-549 breast
NCI-H226 lung = test system: NCI-H226 lung
COLO 205 colon = test system: COLO 205 colon
NCI/ADR-RES ovarian = test system: NCI/ADR-RES ovarian
A498 renal = test system: A498 renal
RXF 393 renal = test system: RXF 393 renal
HOP-92 NSCLC = test system: HOP-92 NSCLC
MDA-MB-435 = test system: MDA-MB-435
SN12C renal = test system: SN12C renal
MDA-MB-231 breast = test system: MDA-MB-231 breast
SW-620 colon = test system: SW-620 colon
NCI-H460 lung = test system: NCI-H460 lung
TK-10 renal = test system: TK-10 renal
HCT-116 colon = test system: HCT-116 colon
SK-MEL-28 melanoma = test system: SK-MEL-28 melanoma
CAKI-1 renal = test system: CAKI-1 renal
A549 NSCLC = test system: A549 NSCLC
SF-539 CNS = test system: SF-539 CNS
HL-60(TB) leukemia = test system: HL-60(TB) leukemia
HOP-62 NSCLC = test system: HOP-62 NSCLC

Structure (SMILES)	TGI (BT-549 breast) [µM]	TGI (NCI-H226 lung) [µM]	TGI (COLO 205 colon) [µM]	TGI (NCI/ADR-RES ovarian) [µM]	TGI (A498 renal) [µM]	TGI (RXF 393 renal) [µM]	TGI (HOP-92 NSCLC) [µM]	TGI (MDA-MB-435) [µM]	TGI (SN12C renal) [µM]	TGI (MDA-MB-231 breast) [µM]	TGI (SW-620 colon) [µM]	TGI (NCI-H460 lung) [µM]	TGI (TK-10 renal) [µM]	TGI (HCT-116 colon) [µM]	TGI (SK-MEL-28 melanoma) [µM]	TGI (CAKI-1 renal) [µM]	TGI (A549 NSCLC) [µM]	TGI (SF-539 CNS) [µM]	TGI (HL-60(TB) leukemia) [µM]	TGI (HOP-62 NSCLC) [µM]
O=C(COc1ccc(OCC(=O)N2C(=O)CSC2=Nc2ccccc2)cc1)N1C(=O)CSC1=Nc1ccccc1	> 100	> 100	96.2	> 100	> 100	> 100	> 100	> 100	> 100	90.1	> 100	> 100	> 100	27.3	> 100	47.7	> 100			
Cc1c(C)c2c(c(N)c1C#N)C(=O)N(Nc1ccccc1)C2=O	> 100	> 100	> 100	> 100		47.1	> 100	> 100	> 100	> 100	> 100	> 100	> 100	> 100	> 100	> 100	> 100	> 100	> 100	
CC(OC(C)(C)C)[C@H](NC(=O)OC(C)(C)C)C(=O)O (stereo partly specified)	> 100	> 100	> 100	> 100	> 100		> 100	> 100	> 100	> 100	> 100	> 100	> 100	> 100		> 100	> 100	> 100	> 100	> 100
Cc1nc(Nc2ccccc2Cl)sc1C(=O)CC(=O)C(=O)Nc1c(Cl)cccc1Cl	86.2	49.7	38.7	54.1		92.9	> 100	50	> 100	42.9	65.5	> 100	> 100	52	85.6	> 100	> 100	83	33.6	> 100
O/C(=C\c1nc2ccccc2nc1/C=C(\O)c1ccc(Cl)cc1)c1ccccc1	> 100	> 100	> 100	> 100	> 100	> 100		> 100	> 100	> 100	> 100	> 100	> 100	> 100	> 100	65.4	> 100	> 100		> 100
CCN1CCN(c2ccc(Nc3ccnc4ccc5c(nnn5C)c34)cc2)CC1	36.3		15.4	36.7	29.5	23.4	21.8	17.9	16	27.2	19	11.9	45.6	14.3	23.9	21.7	22.3	11.1	25.9	17.4
Cc1nc2ccc(S(=O)(=O)Nc3ccccc3)cc2c(=O)n1NC(=O)CNc1ccccc1	> 100	> 100	> 100	> 100			> 100	> 100	> 100	> 100	> 100	> 100	> 100	> 100	> 100	> 100	> 100	> 100	> 100	> 100
NC(=S)N/N=C(\Cc1nc2ccc(Cl)cc2[nH]c1=O)C(=O)Nc1ccc(Cl)cc1	> 100	> 100	> 100	> 100		> 100	> 100	> 100	> 100	> 100	> 100	> 100	> 100	> 100	> 100	> 100	> 100	> 100	> 100	> 100
c1ccc(Cc2nc(Cc3n[nH]c(Cc4ccccc4)n3)n[nH]2)cc1	> 100		> 100	> 100		> 100	> 100	> 100	> 100	> 100	> 100		> 100	> 100	> 100		> 100	> 100		> 100
Nc1nc(N)c(NC(=O)CCCO)c(=O)[nH]1	> 100	> 100	> 100	> 100	> 100	> 100	> 100	> 100	> 100	> 100	> 100	> 100	> 100	> 100		> 100	> 100	> 100		> 100
Cc1ccc2c(=O)c3cccc(CC(=O)O)c3[nH]c2c1C	> 100	> 100	> 100	> 100	> 100		> 100	> 100	> 100	> 100	> 100	> 100	> 100	> 100	> 100	> 100	> 100	> 100	> 100	> 100
CC1(C)O[C@@H]2[C@@H](COC(=O)c3ccccc3)C[C@@H](C#N)[C@@H]2O1	> 100	> 100	> 100	> 100	> 100	> 100	> 100	> 100	> 100	> 100	> 100	> 100	> 100	> 100	> 100		> 100	> 100	> 100	> 100
CCCCCCCCCc1cc(-c2ccc(C=O)s2)sc1-c1ccc(C=O)s1	> 93.6	9.94	> 31.6	> 78.6	3.12	35.4	75.8	> 100	> 84	> 77.9	> 100	> 83.2	34.7	49	> 100		> 100	> 84.3	51.1	74.8
